Several values for one entry are separate records, joined by “and”; a condition that tells them apart may be missing. Identical values can stand only once.
Key:
[1] = test system: U2OS; assay: (§1) Here: values are normalized to the positive (DMSO; basel flux = defined as 100% suppression) and negative (250nM Torin1; mTOR inhibitor; maximal inducer of autophagy defined as 0% suppression) control compounds and represented as % of ER-phagy suppression. […] The impact of autophagy induction on cells is complex and depends on the affected target. […] Of note, treatment concentrations may be sub-optimal for specific compounds, leading to false negative annotations.; format: functional, Homo sapiens; details: Compound Concentration 1 uM, Culturing Media DMEM, 1 % Penicillin/Streptomycin, 10% Fetal bovin serum Add-On: blasticidin, Screening Media Control DMEM, 10% Fetal bovin serum Add-On: 1 µg/ml Doxycyclin, Screening Media Samples DMEM
[2] = test system: U2OS; assay: as §1; format: functional, Homo sapiens; details: Compound Concentration 1 uM, Culturing Media DMEM, 1 % Penicillin/Streptomycin, 10% Fetal bovin serum Add-On: blasticidin, Screening Media Control DMEM, 10% Fetal bovin serum Add-On: 1 µg/ml Doxycyclin, Screening Media Samples DMEM; remark: listed apart in the source
[3] = Timepoint 12 hours, 10% Fetal bovin serum Add-On: 1 µg/ml Doxycyclin 250nM Torin1
[4] = Timepoint 24 hours, 10% Fetal bovin serum Add-On: 1 µg/ml Doxycyclin 250nM Torin1
[5] = Timepoint 36 hours, 10% Fetal bovin serum Add-On: 1 µg/ml Doxycyclin 250nM Torin1
[6] = Timepoint 60 hours, 10% Fetal bovin serum Add-On: 1 µg/ml Doxycyclin 250nM Torin1
[7] = Timepoint 54 hours, 10% Fetal bovin serum Add-On: 1 µg/ml Doxycyclin 250nM Torin1
[8] = Timepoint 12 hours, 10% Fetal bovin serum Add-On: 1 µg/ml Doxycyclin 250nM Torin1, 12 h, 1 µM
[9] = Timepoint 24 hours, 10% Fetal bovin serum Add-On: 1 µg/ml Doxycyclin 250nM Torin1, 24 h, 1 µM
[10] = Timepoint 36 hours, 10% Fetal bovin serum Add-On: 1 µg/ml Doxycyclin 250nM Torin1, 36 h, 1 µM

Row | SMILES | ER-phagy suppression [1, 3] [%] | ER-phagy suppression [1, 4] [%] | ER-phagy suppression [1, 5] [%] | ER-phagy suppression [1, 6] [%] | ER-phagy suppression [2, 3] [%] | ER-phagy suppression [2, 4] [%] | ER-phagy suppression [2, 5] [%] | ER-phagy suppression [2, 7] [%] | ER-phagy suppression [1, 8] | ER-phagy suppression [1, 9] | ER-phagy suppression [1, 10] | ER-phagy suppression ([1]; Timepoint 60 hours, 10% Fetal bovin serum Add-On: 1 µg/ml Doxycyclin 250nM Torin1, 60 h, 1 µM) | ER-phagy suppression [2, 8] | ER-phagy suppression [2, 9] | ER-phagy suppression [2, 10] | ER-phagy suppression ([2]; Timepoint 54 hours, 10% Fetal bovin serum Add-On: 1 µg/ml Doxycyclin 250nM Torin1, 54 h, 1 µM)
1 | C[C@@H](NC(=O)Nc1cc2[nH]ncc2c(CO)n1)c1ccccc1 [ERKi] | -20.6264 | 1.384 | -7.522 | -12.4094 | 6.504 | -3.07 | -4.694 | -0.09872 | – | – | – | – | – | – | – | –
2 | CN(C)CCCn1cc(C2=C(c3c[nH]c4ccccc34)C(=O)NC2=O)c2ccccc21 [GF-109203] | 176.072 | 134.347 | 114.591 | 104.135 | 134.318 | 101.39 | 90.0252 | 89.0171 | – | – | – | – | – | – | – | –
3 | O=C(O)c1ccc(-c2c[nH]c3ncc(-c4ccccc4)cc23)cc1C1CCCC1 [GSK-650394] | -3.529 | -12.5069 | 3.383 | 9.397 | 10.3251 | -3.71 | -12.9295 | -11.6174 | – | – | – | – | – | – | – | –
4 | O=c1cc(-c2cccc3c2Sc2ccccc2S3)oc(N2CCOCC2)c1 [KU-55933] | 55.4841 | 58.138 | 50.8459 | 57.1444 | 6.867 | -4.052 | -12.4961 | -6.9587 | – | – | – | – | – | – | – | –
5 | Cc1cnc(-c2cnc(NCCNc3ccc(C#N)cn3)nc2-c2ccc(Cl)cc2Cl)[nH]1 [LADUVIGLUSIB] | 40.8879 | 29.9628 | 22.9027 | 26.8731 | 16.4928 | 17.774 | 23.5271 | 35.0421 | – | – | – | – | – | – | – | –
6 | O=C(O)[C@]1(Cc2cccc(Nc3nccs3)n2)CC[C@@H](Oc2cccc(Cl)c2F)CC1 [MK-5108] | – | – | – | – | – | – | – | – | 0.5036% and -6.3832% | -3.155% and -11.7886% | -0.3659% and -12.8084% | 7.072% and -14.3125% | -21.8455% and -0.3871% | -36.5962% and -17.27% | -35.461% and -24.0375% | -31.7232% and -12.4423%
7 | C[C@@H]1CN(c2cc(-c3nn(C)c4ccc(OC5(C)CC5)cc34)ncn2)C[C@H](C)O1 [MLi-2-NC] | 30.6608 | 32.7197 | 14.6999 | 6.822 | 6.526 | -15.2571 | -21.814 | -27.1974 | – | – | – | – | – | – | – | –
8 | C[C@@H]1CN(c2cc(-c3n[nH]c4ccc(OC5(C)CC5)cc34)ncn2)C[C@H](C)O1 [MLi-2] | 9.792 | 2.978 | -16.0797 | -15.9794 | 2.807 | -15.8401 | -22.331 | -20.0591 | – | – | – | – | – | – | – | –
9 | Cc1ccc(-c2cnc([C@@]3(O)CC[C@H](C(=O)O)C(C)(C)C3)s2)cc1Nc1cccc(C(F)(F)F)n1 [MRL-SYKi-NC] | -10.2062 | -4.2474 | -12.4056 | -6.238 | -2.6288 | -19.3711 | -27.7592 | -26.2542 | – | – | – | – | – | – | – | –
10 | Cc1cc(Nc2nccc(C)n2)cc(-c2cnc([C@@]3(O)CC[C@H](C(=O)O)C(C)(C)C3)s2)c1 [MRL-SYKi] | -8.621 | -15.4814 | -12.3884 | -21.2275 | -2.1095 | -20.7857 | -24.9988 | -19.5267 | – | – | – | – | – | – | – | –
11 | CN(c1ccnc(CNc2nc(Nc3ccc4c(c3)CC(=O)N4)ncc2C(F)(F)F)n1)S(C)(=O)=O [PF-00911705] | 7.113 | 19.7718 | 14.8623 | 9.977 | 20.0554 | 26.0373 | 39.3297 | 54.466 | – | – | – | – | – | – | – | –
12 | CC(=O)NCC(=O)N1[C@@H]2CC[C@H]1c1ccc(Nc3ncc(C(F)(F)F)c(NC4CCC4)n3)cc12 [PF-03814735] | 2.1297 | 18.4214 | 21.3987 | 29.5902 | -4.576 | -22.3849 | -35.8376 | -44.2787 | – | – | – | – | – | – | – | –
13 | Cn1cnc2c(F)c(Nc3ccc(Br)cc3Cl)c(C(=O)NOCCO)cc21 [SELUMETINIB] | 8.54 | 20.3816 | 25.3525 | 22.2273 | -10.3683 | 3.869 | 4.29 | 11.1979 | – | – | – | – | – | – | – | –
14 | Cn1cc(-c2ccc3nnc(Sc4ccc5ncccc5c4)n3n2)cn1 [SGX-523] | 6.2538 | 0.9511 | 4.373 | 11.7711 | -11.2391 | -26.6862 | -36.424 | -40.7928 | – | – | – | – | – | – | – | –
15 | O=C(O)c1ccc2c(c1)nc(Nc1cccc(Cl)c1)c1ccncc12 [SILMITASERTIB] | -10.7244 | -5.006 | 5.808 | 11.5407 | 22.7695 | 17.6388 | 22.3356 | 12.8536 | – | – | – | – | – | – | – | –
16 | Nc1c(C(=O)NCc2ccc(C(=O)NCCCC3CCCCC3)cc2)cnn1-c1ccccc1 [SR-318] | -4.749 | -10.9122 | -18.8313 | -35.2993 | 18.9481 | 11.0125 | 12.9949 | 20.6922 | – | – | – | – | – | – | – | –
17 | CN1CCN(C(=O)C(C)(C)c2ccc(C(=O)Nc3cn4cc(-c5cc(C(C)(C)C)cc(C(C)(C)C)c5)ccc4n3)cc2)CC1 [T3-CLK-N] | 2.466 | 0.7117 | -6.9152 | -11.2006 | -1.207 | -16.3306 | -17.7073 | -17.4198 | – | – | – | – | – | – | – | –
18 | CN1CCN(C(=O)C(C)(C)c2ccc(C(=O)Nc3cn4cc(-c5ccncc5)ccc4n3)cc2)CC1 [T3-CLK] | 46.4649 | 79.2605 | 82.4738 | 83.9667 | 58.6484 | 70.9328 | 70.8309 | 76.3625 | – | – | – | – | – | – | – | –
